According to US10856562B2, “Flavor composition and edible compositions containing same” (MARS, INCORPORATED, priority 2013, dated 2020):
Entries after “also recorded” stand apart in the source; their conditions may differ. Square brackets hold non-standard residues; d marks the D form. Ends that are not written are not given here. pGlu = O=C1CC[C@@H](C(=O)O)N1

Key:
Format in all cases: in vivo, human
[1] = test system: panelists; experiment: Return to baseline protocol: salt reference re-tasted at 1 minute intervals
Description: (§1) After evaluating the sample for salt and other perceptions (step 3 above), each panelist re-tasted the salt reference (5.0 intensity) at 1 minute intervals until their perception of the saltiness intensity of the reference returned to 5.0. Each panelist recorded salt intensity at each interval and took qualitative notes on other perceptions seen in aftertaste. Attribute Perception Protocol • The panelists evaluated each sample using the following procedure • Descriptive Profiles (flavor and chemical feeling factors) of 5 levels of salt enhancing solutions • Individual data was collected for the flavor and chemical feeling factors of the product in-mouth • Increased Salt Perception Protocol • Each panelist tasted salt 5 reference (0.35% salt solution)—to ground themselves on salt intensity of 5.0. • Each panelist tasted the test sample (0.1 ppb, 0.5 ppb, 1.0 ppb, 10.0 ppb or 40.0/50.0 ppb all in 0.2% NaCl solution: only one per session) • Each panelist then re-tasted the salt 5 reference and rated it for salt intensity as well as any other basic taste, chemical feeling factor, or aromatic perceived. This captured any increased salt perception indicated by the test sample as well as any other perceptions present. • Return to Baseline Protocol • After evaluating the sample for salt & other perceptions, panelists re-tasted the salt 5 reference at 1 minute intervals until their perception of the salt 5 saltiness intensity had returned to 5.0. Each panelist recorded their salt intensity at each interval and took qualitative notes on other perceptions seen in aftertaste. Sample Preparation

[2] = test system: panelists; experiment: Descriptive profile (Spectrum method) of peptide in 0.2% NaCl solution, in-mouth; conditions: for Astringent, in-mouth perception / Bitter, in-mouth perception / Flinty/Mineral, in-mouth perception / Metallic, in-mouth perception / Numbing, in-mouth perception / Salt, in-mouth perception (mean salt perception in-mouth) / Sour, in-mouth perception / Sweet, in-mouth perception: mean score, 15-point scale
Description: Descriptive Profiles (Flavor and Chemical Feeling Factors) of five use levels of a pGlu-Val-Leu flavor composition were determined using the Spectrum™ method. The five use levels were as follows: 0.1 ppb, 0.5 ppb, 1.0 ppb, 10.0 ppb and 40.0 ppb.
Data was collected for the flavor and chemical feeling factors of the product in-mouth for each of the five use levels according to the following protocol. One replication was collected for the flavor and chemical feeling factors of the product in-mouth. 6-9 panelists evaluated per session.
2. Each panelist tasted a test sample (0.1 ppb, 0.5 ppb, 1.0 ppb, 10.0 ppb or 40.0 ppb all in 0.2% NaCl solution). Only one sample was tasted per session.
Descriptive attributes (e.g., taste, flavor and chemical feeling factors) of six use levels of pGlu-Val-Leu (SE-13), pGlu-Val (SE-14) and pGlu-Val-Val (SE-17) flavor composition peptides were determined. The six use levels were as follows: 0.1 ppb, 0.5 ppb, 1.0 ppb, 10.0 ppb, 40.0 ppb and 50.0 ppb.
Data was collected for the attributes of the product in-mouth for the use levels according to the following protocol: • The samples were analyzed for flavor and aftertaste by six-nine members of a panel, trained and experienced in appearance, flavor and texture evaluation using the Spectrum™ method. Samples in solution were evaluated across multiple panel sessions. • The strength of each attribute was rated on a 15-point scale, where 0=none and 15=very strong. • This scale incorporates the ability to use tenths of a point and therefore has the potential of 150 scale differentiations. • The scale may be expanded beyond 15 points to include extreme ratings if necessary.
as §1, with “Attribute” for “After evaluating the sample for salt and other perceptions (step 3 above), each panelist re-tasted the salt reference (5.0 intensity) at 1 minute intervals until their perception of the saltiness intensity of the reference returned to 5.0. Each panelist recorded salt intensity at each interval and took qualitative notes on other perceptions seen in aftertaste. Attribute”
The 0.1, 0.5, 1.0 10, 40, and 50 ppb test samples of the flavor composition peptides were prepared in water as described in table 4.
The panelists evaluated each sample for the attributes described in table 5.

[3] = test system: panel of trained tasters; experiment: Saltiness of sodium-reduced pasta sauce with peptides, panel of trained tasters; conditions: test 405 mg Na, UE-30 1 ppb
Description: Food product compositions were prepared by admixing flavor composition peptide(s) of the present application with food compositions, wherein the level of sodium (NaCl) in the food product compositions was reduced. The level of sodium was reduced by 25%, 50% or 75% compared to food products compositions that were not admixed with flavor composition peptides. The food product compositions comprising the flavor composition peptides were tasted by a panel of trained tasters and the level of saltiness was compared to the control food products.
The peptides pGlu-Val-Leu (identified as “SE-13”), pGlu-Val-Cys (identified as “UE-30”) and pGlu-Val-Val (identified as “SE-17”) were tested in Pasta Sauce. The control pasta sauce comprised 540 mg sodium (NaCl) in a 125 g serving.

## [pGlu]-Val-Val [SE-17]
[1]; 0.1 ppb in 0.2% NaCl
  Mean time needed to return to baseline: 3.4 min
  Mean time needed to return to baseline (min.): 3.4 min
[1]; 0.1 to 40.0/50.0 ppb
  Time needed to return to baseline as the concentration increases: No definitive trends are seen; also recorded: no definitive trend
[1]; 0.5 ppb in 0.2% NaCl
  Mean time needed to return to baseline: 5.6 min
  Mean time needed to return to baseline (min.): 5.6 min
[1]; 1.0 ppb in 0.2% NaCl
  Mean time needed to return to baseline: 5.0 min
  Mean time needed to return to baseline (min.): 5.0 min
[1]; 10.0 ppb in 0.2% NaCl
  Mean time needed to return to baseline: 5.0 min
  Mean time needed to return to baseline (min.): 5.0 min
[1]; 50.0 ppb in 0.2% NaCl
  Mean time needed to return to baseline: 4.1 min
  Mean time needed to return to baseline (min.): 4.1 min
[2]; 0.1 ppb in 0.2% NaCl
  Astringent, in-mouth perception: 0.0
  Bitter, in-mouth perception: 0.0
  Flinty/Mineral, in-mouth perception: 0.7
  Metallic, in-mouth perception: 0.0
  Numbing, in-mouth perception: 0.0
  Salt, in-mouth perception (mean salt perception in-mouth): 3.1
  Sour, in-mouth perception: 0.0
  Sweet, in-mouth perception: 0.0
[2]; 0.1 to 40.0/50.0 ppb
  Level of the aromatics, basic tastes and chemical feeling factors in-mouth with increasing concentration: does not increase
[2]; 0.1 to 40.0/50.0 ppb in 0.2% NaCl
  Salt perception in-mouth as the concentration increases: does not increase notably; also recorded: Does not show a notable increase; also recorded: did not necessarily increase
[2]; 0.5 ppb in 0.2% NaCl
  Astringent, in-mouth perception: 0.0
  Bitter, in-mouth perception: 0.0
  Flinty/Mineral, in-mouth perception: 0.8
  Metallic, in-mouth perception: 0.3
  Numbing, in-mouth perception: 0.0
  Salt, in-mouth perception (mean salt perception in-mouth): 4.0
  Sour, in-mouth perception: 0.0
  Sweet, in-mouth perception: 0.0
[2]; 1.0 ppb in 0.2% NaCl
  Astringent, in-mouth perception: 0.0
  Bitter, in-mouth perception: 0.0
  Flinty/Mineral, in-mouth perception: 0.5
  Metallic, in-mouth perception: 0.0
  Numbing, in-mouth perception: 0.0
  Salt, in-mouth perception (mean salt perception in-mouth): 2.8
  Sour, in-mouth perception: 0.0
  Sweet, in-mouth perception: 0.0
[2]; 10.0 ppb in 0.2% NaCl
  Astringent, in-mouth perception: 0.0
  Bitter, in-mouth perception: 0.0
  Flinty/Mineral, in-mouth perception: 0.5
  Metallic, in-mouth perception: 0.0
  Numbing, in-mouth perception: 0.0
  Salt, in-mouth perception (mean salt perception in-mouth): 3.6
  Sour, in-mouth perception: 0.0
  Sweet, in-mouth perception: 0.0
[2]; 50.0 ppb in 0.2% NaCl
  Astringent, in-mouth perception: 0.0
  Bitter, in-mouth perception: 0.0
  Flinty/Mineral, in-mouth perception: 0.5
  Metallic, in-mouth perception: 0.0
  Numbing, in-mouth perception: 0.0
  Salt, in-mouth perception (mean salt perception in-mouth): 3.9
  Sour, in-mouth perception: 0.0
  Sweet, in-mouth perception: 0.0
[2]; all levels
  Umami like swelling of lips and tongue, in-mouth: Some panelists also experience Umami like swelling of lips and tongue
[2]; both in-mouth and after expectoration
  Umami like feeling factor of lip and tongue swelling: Shows umami like feeling factor of lip and tongue swelling
[2]; overall
  Levels of salt perception in-mouth, comparison of SE-13, SE-14 and SE-17: highest levels
[3]; control 540 mg, SE-13 or SE-17 10 ppb, n=4
  Saltiness compared to control: significantly less salty than
[3]; SE-17 10 ppb
  Salt enhancement: UE-30 did not provide a big
